What was measured:
Experiment in all cases: relative viability (nuclei count vs DMSO), 5 days (fraction); higher = more cells survive
[1] = test system: 201T
Method in brief: (§1)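 Lung cancer cell lines in 1536-well plates got either a single drug or a fixed anchor-drug dose together with five library-drug doses (not always all listed) in √10 steps, by pin tool, on the day after seeding. Nuclei were counted after 5 days, and relative viability is the treated-to-vehicle ratio of nuclei counts. Values are medians of duplicate plates.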

[2] = test system: BEN
Method in brief: as §1

[3] = test system: COR-L 105
Method in brief: as §1

[4] = test system: COR-L23
Method in brief: as §1

[5] = test system: EKVX
Method in brief: as §1

[6] = test system: HARA
Method in brief: as §1

[7] = test system: HCC-15
Method in brief: as §1

[8] = test system: HCC-366
Method in brief: as §1

[9] = test system: HCC-78
Method in brief: as §1

[10] = test system: HCC-827
Method in brief: as §1

[11] = test system: LC-2-ad
Method in brief: as §1

[12] = test system: LU99A
Method in brief: as §1

[13] = test system: LXF-289
Method in brief: as §1

[14] = test system: NCI-H1734
Method in brief: as §1

[15] = test system: NCI-H1755
Method in brief: as §1

[16] = test system: NCI-H1944
Method in brief: as §1

[17] = test system: NCI-H1975
Method in brief: as §1

[18] = test system: NCI-H1993
Method in brief: as §1

[19] = test system: NCI-H3122
Method in brief: as §1

[20] = test system: NCI-H596
Method in brief: as §1

[21] = test system: RERF-LC-KJ
Method in brief: as §1

[22] = test system: SK-LU-1
Method in brief: as §1

O=C(O)CCCCC(CCSCc1ccccc1)SCc1ccccc1 (centres undefined) [CPI-613] + Cc1nc(NC(=O)N2CCC[C@H]2C(N)=O)sc1-c1ccnc(C(C)(C)C(F)(F)F)c1 [Alpelisib] (partner 2 µM)
relative viability ([1]; first compound 5 µM): 1
relative viability ([1]; first compound 15.81 µM): 0.976
relative viability ([1]; first compound 50 µM): 0.996
relative viability ([1]; first compound 158.11 µM): 1.01
relative viability ([1]; first compound 500 µM): 1.01
relative viability ([2]; first compound 5 µM): 0.929
relative viability ([2]; first compound 15.81 µM): 0.949
relative viability ([2]; first compound 50 µM): 0.969
relative viability ([2]; first compound 158.11 µM): 0.831
relative viability ([2]; first compound 500 µM): 0.858
relative viability ([3]; first compound 5 µM): 0.888
relative viability ([3]; first compound 15.81 µM): 1.11
relative viability ([3]; first compound 50 µM): 0.909
relative viability ([3]; first compound 158.11 µM): 0.476
relative viability ([3]; first compound 500 µM): 0.161
relative viability ([4]; first compound 5 µM): 0.745
relative viability ([4]; first compound 15.81 µM): 0.696
relative viability ([4]; first compound 50 µM): 0.852
relative viability ([4]; first compound 158.11 µM): 0.281
relative viability ([4]; first compound 500 µM): 0.0191
relative viability ([5]; first compound 5 µM): 0.802
relative viability ([5]; first compound 15.81 µM): 0.814
relative viability ([5]; first compound 50 µM): 0.903
relative viability ([5]; first compound 158.11 µM): 0.857
relative viability ([5]; first compound 500 µM): 0.965
relative viability ([6]; first compound 5 µM): 0.856
relative viability ([6]; first compound 15.81 µM): 0.681
relative viability ([6]; first compound 50 µM): 0.942
relative viability ([6]; first compound 158.11 µM): 0.401
relative viability ([6]; first compound 500 µM): 0.0463
relative viability ([7]; first compound 5 µM): 0.942
relative viability ([7]; first compound 15.81 µM): 0.805
relative viability ([7]; first compound 50 µM): 0.828
relative viability ([7]; first compound 158.11 µM): 0.562
relative viability ([7]; first compound 500 µM): 0.35
relative viability ([8]; first compound 5 µM): 0.322
relative viability ([8]; first compound 15.81 µM): 0.373
relative viability ([8]; first compound 50 µM): 0.441
relative viability ([8]; first compound 158.11 µM): 0.355
relative viability ([8]; first compound 500 µM): 0.0061
relative viability ([9]; first compound 5 µM): 0.26
relative viability ([9]; first compound 15.81 µM): 0.309
relative viability ([9]; first compound 158.11 µM): 0.338
relative viability ([9]; first compound 500 µM): 0.358
relative viability ([10]; first compound 5 µM): 0.972
relative viability ([10]; first compound 15.81 µM): 1
relative viability ([10]; first compound 50 µM): 0.974
relative viability ([10]; first compound 158.11 µM): 0.47
relative viability ([10]; first compound 500 µM): 0.218
relative viability ([11]; first compound 5 µM): 0.83
relative viability ([11]; first compound 15.81 µM): 0.818
relative viability ([11]; first compound 50 µM): 0.8
relative viability ([11]; first compound 158.11 µM): 0.201
relative viability ([11]; first compound 500 µM): 0.006
relative viability ([12]; first compound 5 µM): 0.535
relative viability ([12]; first compound 15.81 µM): 0.51
relative viability ([12]; first compound 50 µM): 0.461
relative viability ([12]; first compound 158.11 µM): 0.227
relative viability ([12]; first compound 500 µM): 0.0551
relative viability ([13]; first compound 5 µM): 1.02
relative viability ([13]; first compound 15.81 µM): 0.961
relative viability ([13]; first compound 50 µM): 0.988
relative viability ([13]; first compound 158.11 µM): 0.318
relative viability ([13]; first compound 500 µM): 0.0306
relative viability ([14]; first compound 5 µM): 0.629
relative viability ([14]; first compound 15.81 µM): 0.694
relative viability ([14]; first compound 50 µM): 0.625
relative viability ([14]; first compound 158.11 µM): 0.493
relative viability ([14]; first compound 500 µM): 0.098
relative viability ([15]; first compound 5 µM): 0.91
relative viability ([15]; first compound 15.81 µM): 0.89
relative viability ([15]; first compound 50 µM): 0.837
relative viability ([15]; first compound 158.11 µM): 0.769
relative viability ([15]; first compound 500 µM): 0.251
relative viability ([16]; first compound 5 µM): 0.841
relative viability ([16]; first compound 15.81 µM): 0.843
relative viability ([16]; first compound 50 µM): 0.778
relative viability ([16]; first compound 158.11 µM): 0.803
relative viability ([16]; first compound 500 µM): 0.743
relative viability ([17]; first compound 5 µM): 0.542
relative viability ([17]; first compound 15.81 µM): 0.655
relative viability ([17]; first compound 50 µM): 0.692
relative viability ([17]; first compound 158.11 µM): 0.327
relative viability ([17]; first compound 500 µM): 0.0528
relative viability ([18]; first compound 5 µM): 0.709
relative viability ([18]; first compound 15.81 µM): 0.721
relative viability ([18]; first compound 50 µM): 0.752
relative viability ([18]; first compound 158.11 µM): 0.485
relative viability ([18]; first compound 500 µM): 0.432
relative viability ([19]; first compound 5 µM): 0.638
relative viability ([19]; first compound 15.81 µM): 0.751
relative viability ([19]; first compound 50 µM): 0.715
relative viability ([19]; first compound 158.11 µM): 0.528
relative viability ([19]; first compound 500 µM): 0.0415
relative viability ([20]; first compound 5 µM): 0.539
relative viability ([20]; first compound 15.81 µM): 0.496
relative viability ([20]; first compound 50 µM): 0.539
relative viability ([20]; first compound 158.11 µM): 0.473
relative viability ([20]; first compound 500 µM): 0.0181
relative viability ([21]; first compound 5 µM): 0.748
relative viability ([21]; first compound 15.81 µM): 1.34
relative viability ([21]; first compound 50 µM): 0.757
relative viability ([21]; first compound 158.11 µM): 0.869
relative viability ([21]; first compound 500 µM): 0.733
relative viability ([22]; first compound 5 µM): 1.05
relative viability ([22]; first compound 15.81 µM): 0.849
relative viability ([22]; first compound 50 µM): 0.57
relative viability ([22]; first compound 158.11 µM): 0.175
relative viability ([22]; first compound 500 µM): 0.114

Reference: the supplement of paper PMC10307832
